According to patent US11180449B2, “Crystal form of key intermediate of bruton tyrosine kinase (BTK) inhibitor and preparation method thereof” (SHANGHAI ZAIQI BIO-TECH CO., LTD., priority 2019, dated 2021):
“Also recorded” adds a separate entry of the source.

Legend:
[1] = Stability comparison between crystal forms I and II (influence factors: light, temperature, humidity); assay type: physicochemical; conditions: for change of purity of the compound: 10 days under light, 30° C. and 40° C., 75% RH and 90% RH
[2] = Special stability of crystal form II (grinding, heating, tableting); assay type: physicochemical
Description: The crystal form II of a compound of formula (I) prepared according to the method of Example 2 was subjected to grinding, heating and tableting.

Row | purity of the compound, 30° C. ([1]; day 0) [%] | purity of the compound, 30° C. ([1]; day 5) [%] | purity of the compound, 30° C. ([1]; day 10) [%] | purity of the compound, 30° C. ([1]; day 30) [%] | purity of the compound, 40° C. ([1]; day 0) [%] | purity of the compound, 40° C. ([1]; day 5) [%] | purity of the compound, 40° C. ([1]; day 10) [%] | purity of the compound, 40° C. ([1]; day 30) [%] | change of purity of the compound [1] | purity of the compound, Illumination ([1]; open condition, day 0) [%] | purity of the compound, Illumination ([1]; open condition, day 5) [%] | purity of the compound, Illumination ([1]; open condition, day 10) [%] | purity of the compound, Illumination ([1]; open condition, day 30) [%] | purity of the compound, RH75% ([1]; day 0) [%] | purity of the compound, RH75% ([1]; day 5) [%] | purity of the compound, RH75% ([1]; day 10) [%] | purity of the compound, RH75% ([1]; day 30) [%] | purity of the compound, RH90% ([1]; day 0) [%] | purity of the compound, RH90% ([1]; day 5) [%] | purity of the compound, RH90% ([1]; day 10) [%] | Compound | other results
1 | 99.31 | 99.23 | 99.10 | 98.87 | 99.31 | 99.18 | 99.05 | 95.01 | not obviously changed | 99.31 | 97.75 | 95.53 | 85.76 | 99.31 | 99.18 | 98.97 | 97.41 | 99.31 | 98.91 | 98.51 | CCOC(=O)c1c(C#N)c(-c2ccc(Oc3c(F)cccc3F)cc2)cn1[C@@H]1CCN(C(=O)OC(C)(C)C)C1 [Crystal form I] | purity of the compound, RH90% ([1]; day 30): 95.91%; crystal form re-tested after the influence factor experiment [1]: not changed
2 | 99.73 | 99.72 | 99.72 | 99.67 | 99.73 | 99.68 | 99.65 | 99.60 | not obviously changed | 99.73 | 99.56 | 99.43 | 99.21 | 99.73 | 99.72 | 99.68 | 99.64 | 99.73 | 99.71 | 99.61 | CCOC(=O)c1c(C#N)c(-c2ccc(Oc3c(F)cccc3F)cc2)cn1[C@@H]1CCN(C(=O)OC(C)(C)C)C1 [Crystal form II] | XRD detection (crystal form after treatment) ([2]; Grinding for 10 min in a mortar under nitrogen protection): Crystal; XRD detection (crystal form after treatment) ([2]; Tableting): Crystal; stability of the crystal form under mechanical treatment ([2]; grinding, heating and tableting (pressure)): good stability; also recorded: stable; purity of the compound, RH90% ([1]; day 30): 99.53%; crystal form re-tested after the influence factor experiment [1]: not changed; stability compared with crystal form I (amorphous sample) ([1]; open condition, light, high temperature and high humidity): significantly better
